Data set [1] has as its target T1, GST-hLGK1 (human liver GK) (Homo sapiens, UniProt P35557).
T1 construct: made in house; host or cells: Escherichia coli BL21 (Stratagene), plasmid pGEX6P-2/hLGK1
T1 sequence (P35557 1-464 isoform P35557-3): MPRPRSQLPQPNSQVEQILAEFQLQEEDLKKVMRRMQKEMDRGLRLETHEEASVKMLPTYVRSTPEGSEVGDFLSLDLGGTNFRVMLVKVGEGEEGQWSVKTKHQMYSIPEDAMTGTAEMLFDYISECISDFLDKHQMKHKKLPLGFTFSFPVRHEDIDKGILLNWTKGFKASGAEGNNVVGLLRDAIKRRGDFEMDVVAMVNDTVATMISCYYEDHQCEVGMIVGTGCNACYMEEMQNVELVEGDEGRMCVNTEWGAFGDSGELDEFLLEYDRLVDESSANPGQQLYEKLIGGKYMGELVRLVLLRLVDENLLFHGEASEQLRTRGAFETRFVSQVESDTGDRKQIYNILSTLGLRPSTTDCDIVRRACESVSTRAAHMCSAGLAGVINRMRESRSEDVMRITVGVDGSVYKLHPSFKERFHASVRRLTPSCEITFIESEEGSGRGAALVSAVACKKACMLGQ
In words: Determination of GK activity value (GST-hLGK1, Mant-ATP, capillary electrophoresis). The format is biochemical. As to conditions: glucokinase activation; GST-hLGK1, D-glucose, 37° C. for 60 min; concentration at midpoint between maximum activity value and control group activity value. On the procedure: Plasmid DNA to be used for the expression of a protein (GST-hLGK1) containing GST (Glutathione S-transferase) added to the amino terminal of human liver GK in Escherichia coli was prepared as follows.
BL21 strain (Stratagene) transformed with pGEX6P-2/hLGK1 obtained in Reference Example 1A was cultured with shaking at 37° C. for 14 hr in a 200 ml Erlenmeyer flask containing 50 ml of 100 μg/ml ampicillin-containing LB medium. The culture medium (25 ml) was diluted with 225 ml of 100 μg/ml ampicillin-containing LB medium, and further cultured with shaking at 37° C. for 1 hr in a 1 L Erlenmeyer flask. After culture, the Erlenmeyer flask was cooled on ice, 125 μL of 100 mM isopropyl-thio-β-D-galactopyranoside (IPTG) was added (final concentration 50 μM), and cultured at 17° C. for 20 hr. The culture medium was centrifuged, and the obtained fungus was disrupted by ultrasonication. The object protein (GST-hLGK1) was purified from the supernatant using Glutathione Sepharose 4B (Amersham Biosciences K.K.).
A solution (5 μL) of test compound in 50% dimethyl sulfoxide was added to each well of 384 well black plate (Nalge Nunc International K.K.). Then, a solution ([…]) obtained by diluting GST-hLGK1 obtained in Reference Example 2A with measurement buffer (containing 50 mM HEPES (pH 7.4), 200 mM KCl, 5 mM MgCl2, 2.5 mM DTT and 50 μM 2′-(or-3′)-O—(N-methylanthraniloyl)adenosine 5′-triphosphate (Mant-ATP) (Jena Bioscience GmbH)) to 6 μg/mL was added to each well.
Each well was stood at 37° C. for 10 min, and 25 mM D-glucose solution (10 μL) was added to start the reaction.
Each well after the reaction was stood at 37° C. for 60 min, and the reaction was quenched by adding 25 μL of a quenching solution (containing 200 mM HEPES (pH 7.4), 20 mM MgCl2, 200 mM EDTA, 0.03% Triton-X 100, 0.3% Coating 3 reagent (Caliper Life Sciences, Inc.)).
2′-(or-3′)-O—(N-methylanthraniloyl)adenosine 5′-triphosphate (Mant-ATP, substrate) and Mant-ADP (reaction resultant product) were separated from each well after the reaction by a microchip type capillary electrophoresis apparatus 250 HTS (Caliper Life Sciences, Inc.). The reaction rate [(reaction resultant product peak height)/(reaction resultant product peak height+substrate peak height)×100(%)] was calculated from the ratio of the substrate peak height and reaction resultant product peak height obtained by fluorescence detection (excitation wavelength 355 nm, measurement wavelength 460 nm) and used as the index of GK activity.
As a control group, the reaction rate was calculated in the same manner as above except that “solution in 50% dimethyl sulfoxide (without test compound)” was used instead of “solution of test compound in 50% dimethyl sulfoxide”.
A concentration dependency curve of the test compound was drawn with the percentage obtained by dividing the reaction rate of the well added with the test compound (test compound addition group) by the reaction rate of the control group was taken as the GK activity value of the test compound, and the concentration of the test compound at the midpoint between the maximum activity value of the test compound addition group and the control group activity value is shown as EC50 value.

This note sets out measurements from US7777047B2, “Indole compound” (Takeda Pharmaceutical Company Limited, priority 2006, dated 2010).

pEC50: −log10 of the molar value.

Broadly, the melting point is the temperature, or range, at which the solid turns liquid. Usually pEC50 stands for −log10 of the EC50, conventionally taken in molar units. In turn, `CN(c1cccc2cc(C3=NCC(CC(N)=O)S3)[nH]c12)S(=O)(=O)c1ccccn1` (single isomer, unassigned) [Example 337, 2-(2-{7-[methyl(pyridin-2-ylsulfonyl)amino]-1H-indol-2-yl}-4,5-dihydro-1,3-thiazol-5-yl)acetamide] had a melting point of 149 to 150 °C. The pEC50 in data set [1] was 7.09.

As for `CN(c1cccc2cc(-c3ncc(CN4CCN5C(=O)OCC5C4)s3)[nH]c12)S(=O)(=O)c1cccs1` (stereo not drawn) [Example 229, N-methyl-N-(2-{5-[(3-oxotetrahydro[1,3]oxazolo[3,4-a]pyrazin-7(1H)-yl)methyl]-1,3-thiazol-2-yl}-1H-indol-7-yl)thiophene-2-sulfonamide], the negative-log EC50 (pEC50) in data set [1] is 6.92.

As for `CCN(c1cccc2cc(-c3ncc(CN4CCn5cnnc5C4)s3)[nH]c12)S(=O)(=O)c1cccs1` [Example 236, N-{2-[5-(5,6-dihydro[1,2,4]triazolo[4,3-a]pyrazin-7(8H)-ylmethyl)-1,3-thiazol-2-yl]-1H-indol-7-yl}-N-ethylthiophene-2-sulfonamide], the pEC50 in data set [1] is 6.60.

In data set [1], `CN(c1cccc2cc(C3=NCC4(CCOCC4)S3)[nH]c12)S(=O)(=O)c1cccs1` [Example 243, N-methyl-N-[2-(8-oxa-1-thia-3-azaspiro[4.5]dec-2-en-2-yl)-1H-indol-7-yl]thiophene-2-sulfonamide] gave a pEC50 of 7.62.

As for `COCCOc1cc(N(C)S(=O)(=O)c2ccccn2)c2[nH]c(C3=N[C@H](CO)CS3)cc2c1` [Example 253, N-[2-[(4R)-4-(hydroxymethyl)-4,5-dihydro-1,3-thiazol-2-yl]-5-(2-methoxyethoxy)-1H-indol-7-yl]-N-methylpyridine-2-sulfonamide], the pEC50 in data set [1] was 6.68.

In data set [1], `COCCOc1cc(N(C)S(=O)(=O)c2ccccn2)c2[nH]c(C3=N[C@@H](CO)CS3)cc2c1` [Example 254, N-[2-[(4S)-4-(hydroxymethyl)-4,5-dihydro-1,3-thiazol-2-yl]-5-(2-methoxyethoxy)-1H-indol-7-yl]-N-methylpyridine-2-sulfonamide] had a pEC50 of 6.70.

`CN(c1cccc2cc(C3=NCC4(CCN(CC(N)=O)CC4)S3)[nH]c12)S(=O)(=O)c1cccs1` [Example 414, 2-(2-{7-[methyl(2-thienylsulfonyl)amino]-1H-indol-2-yl}-1-thia-3,8-diazaspiro[4.5]dec-2-en-8-yl)acetamide] showed a melting point of 226 °C. The compound also gave a pEC50 in data set [1] of 7.43.
